This note sets out measurements from US20250288554A1, “PROPHYLACTIC OR THERAPEUTIC AGENT FOR NON-ALCOHOLIC STEATOHEPATITIS-DERIVED HEPATOCARCINOMA” (SEAKNIT Biological Technology Co., Ltd., priority 2022, published 2025).

SMILES strings stand for the structures. Entries after “also recorded” stand apart in the source; their conditions may differ.

One experiment relates to HepG2 cell. Put plainly: Taxifolin's suppressing action on fatty acid capturing in HepG2 cells (Oil Red O lipid droplet staining). The class given is cell-based, human. The conditions noted are these: 24 hours; for capturing amount of palmitic acid by the HepG2 cells: 400 μm palmitic acid, vs Group B without taxifolin. As for the experimental part:
In Test example 2, the taxifolin's action on fatty acid capturing was studied by using the HepG2 cell, which is the cell strain derived from human hepatocarcinoma.
The HepG2 cells were inoculated with the density of 0.2×10^6 cells/well on the plate having 24 wells, and they were cultured using the 10% FBS-containing DMEM medium until the HepG2 cells covered 70 to 80% of the surface in the culture vessel. The HepG2 cells cultured in the culture medium were washed with the phosphate buffer (PBS), then cultured for 24 hours in the serum-free medium containing 400 μm of palmitic acid, taxifolin with various concentrations, and 1% BSA, with n=6 in each Group A to E, as described in Table 2.
The glucose concentration contained in the culture medium and in the serum-free medium were made 0%, 0.1% (low glucose), or 0.45% (high glucose).
The HepG2 cells that had been cultured in the serum-free medium for 24 hours were immobilized by 4% paraformaldehyde after washing with PBS. The resulting immobilized HepG2 cells were treated with 60% isopropanol, and then the lipid drops in the cells were stained using Oil Red O (Wako Pure Chemical Industries, Ltd.). Thereafter, it was washed with 60% isopropanol and then with PBS. The resulting washed HepG2 cells were treated with 100% isopropanol to elute the Oil Red O out. The resulting eluted Oil Red O was recovered in the plate with 96 wells, and then the absorbance (550 nm) was measured using the microplate reader (Multiscan SkyHigh; Thermo Fisher Scientific, Inc.).
The statistical analysis was conducted using Student t-test.
In FIG. 2, the capturing amount of the fatty acid is expressed by the average value of each group±standard error.
FIG. 2 indicates the capturing amount of the fatty acid in the HepG2 cells in each Group. The capturing amount in the HepG2 cells in each Group A to E is expressed by the percentage relative to Group A.

The subject of another experiment is MC4R deficient mouse. Briefly: Prophylactic effect of taxifolin on hepatocarcinoma in MC4R deficient mouse loaded with a high fat diet. Format: in vivo. The note with it: high fat diet containing 3% of taxifolin from 20 to 50 weeks old, vs reference group. The source says:
In Test Example 3, the taxifolin's action on the hepatocarcinoma by using the melanocortin-4 receptor deficient mouse (hereinafter, “MC4R deficient mouse”) loaded with a high fat diet. On the basis of the description in JP 2020-065454 A and JP 2017-006022 A, the MC4R deficient mouse provided by Joel K. Elmquist at the Medical Center in Texas University was used (Cell, 2005; 123(3): 493-505). The genetic background of the MC4R deficient mouse is the C57BL/6J mouse. These mice were kept under the controlled condition of temperature, humidity, and lighting time (12 hours cycle of dark and bright), unless otherwise specifically noted. After weaning (4 weeks after the birth), they were raised with a high fat diet (D12492 (524 kcal/100 g; 60% fat content in terms of energy rate); Research Diets, Inc.) and with freely available drinking water. All the MC4R mice loaded with the high fat diet had the NASH-like symptom by 20 weeks old; it has been known that they develop hepatocarcinoma thereafter (Am. J. Pathol., 2011; 179(5):2454-2463). The MC4R deficient 20 weeks old mice loaded with the high fat diet were divided into two groups; the reference group (n=13) that is continued to be fed with the same high fat diet until 50 weeks old, and the taxifolin-administered group (n=12) that is fed with the high fat diet containing 3% of taxifolin. The mice raised until 50 weeks old were euthanized by deep anesthesia using three mixed anesthetic agents, and then, the liver of each individual was removed. The number of the precancerous symptoms (Foci) in the removed liver, the number of the tumors having the precancerous symptom clustered, and the size of the tumor were measured. The statistical analysis was conducted using Student t-test. In FIG. 3, the number of the precancerous symptoms, the number of the tumors having the precancerous symptom clustered, and the size of the tumor are expressed by the average value of each group±standard error.

The next experiment concerns CD36 gene expression. Put plainly: Suppression effect of taxifolin on CD36 gene expression in the liver tissue of high-fat diet-induced model mice (real-time PCR). Format: in vivo, mouse. The note with it: C57BL/6J male mice, corrected by GAPDH. The source says:
In Test Example 1, the taxifolin's action on the CD36 gene expression in the liver tissue was studied using the high-fat diet-induced model mice.
The C57BL/6J male mice (7 weeks old: CLEA Japan, Inc.) were acclimated for one week with a normal solid diet (MF: Oriental Yeast Co., Ltd.) and with freely available drinking water.
The 8 weeks old mice after the acclimation were divided into 4 groups with 5 mice each, namely, the group of those raised with a normal solid diet for 12 weeks until 20 weeks old (hereinafter, “ND Group”), the group raised with a high fat diet (HFD-60 (506 kcal/100 g; 60% fat content in terms of energy rate): Oriental Yeast Co., Ltd.) (hereinafter, “HFD Group”), the group raised with the high fat diet containing 1% by weight of taxifolin (hereinafter, “HFD+1% TX-administered Group”), and the group raised with the high fat diet containing 3% by weight of taxifolin (hereinafter, “HFD+3% TX-administered Group”).
The mice raised until 20 weeks old were anesthetized with ether, and after they were euthanized by cervical dislocation, the liver of each individual was removed. […]
The mRNA expression amount of CD36 was corrected by the expression amount of glyceraldehyde-3-phosphate dehydrogenase (GAPDH), and this was comparatively quantified using the ΔΔCt method. […]
(In general: Quantitative PCR measures a nucleic acid by following its amplification.)

As to `O=C1c2c(O)cc(O)cc2O[C@H](c2ccc(O)c(O)c2)[C@H]1O` [taxifolin], in the experiment on HepG2 cell (HepG2 cells, palmitic acid, lowest concentration tested), the “concentration at which taxifolin suppressed the fatty acid capturing in the liver cells” value was 0.1 nM. Besides, the “capturing amount of palmitic acid by the HepG2 cells” value is “same tendency” in the experiment on HepG2 cell (high glucose (0.45%), taxifolin 0.1 nM to 1 μM) and “significantly decreased” with HepG2 cell (low glucose (0.1%), taxifolin 0.1 nM or more). The “number of the precancerous symptoms (Foci) in the liver” value in the experiment on MC4R deficient mouse is “decreased drastically”. Also, the “number of the tumors having the precancerous symptom clustered” value in the experiment on MC4R deficient mouse is “decreased drastically”. For the same compound, the “size of the tumor between 1 and 5 mm” value in the experiment on MC4R deficient mouse was “decreased significantly”. For the same compound, the “mRNA expression amount of CD36 in the liver tissue” value in the experiment with CD36 gene expression (high fat diet containing 1% by weight of taxifolin for 12 weeks (HFD+1% TX-administered Group) vs HFD Group) is given as “significantly decreased”; with CD36 gene expression (high fat diet containing 3% by weight of taxifolin for 12 weeks (HFD+3% TX-administered Group) vs HFD Group), “significantly decreased; also recorded: suppressed to the same level as the ND Group”.
